37 molecules from the COVID Moonshot data (paper PMC7615835) can be followed below.

Series [1] concerns the target SARS-CoV-2 Main Protease (SARS-CoV-2) (UniProt P0DTD1).
The conditions of series [2]: in vivo, iv, 0.5 mg/kg.

pIC50: −log10 of the molar value. Values joined by “and” are separate entries in the source; they are usually repeats but may differ in a detail not shown here. Identical values can stand only once. Some results are limits rather than exact numbers.

`Cn1ncc2cncc(NC(=O)Cc3cccc(Cl)c3)c21` showed a pIC50 in series [1] of 5.82. For the same molecule, in series [2] (rat), the AUC(0-inf) is 178 ng·h/mL and 250 ng·h/mL; the AUC(0-t) is 178 ng·h/mL and 248 ng·h/mL; the C0 was 820 ng/mL and 1030 ng/mL; the MRT inf was 19.3 min and 15.2 min. Besides, in series [2] (rat), the MRT last is 14.9 min and 18.1 min; the Vd was 0.709 L/kg and 0.64 L/kg; the clearance is 46.7 mL/min/kg and 34.6 mL/min/kg; the half-life is 14.9 min and 17.9 min.

In series [1], `O=C(Cc1cccc(Cl)c1)Nc1c[nH]c(=O)c2ccccc12` showed a pIC50 of under 4.00. Besides, in series [2] (rat), the total exposure AUC(0-inf) was 200 ng·h/mL and 464 ng·h/mL; the AUC(0-t) was 192 ng·h/mL and 458 ng·h/mL; the C0 was 496 ng/mL and 718 ng/mL; the MRT inf was 42.7 min and 34.1 min. For the same molecule, in series [2] (rat), the MRT last was 29.2 min and 40.5 min; the Vd was 1.42 L/kg and 0.802 L/kg; the clearance is 41.6 mL/min/kg and 19.6 mL/min/kg; the half-life was 26.2 min and 25.4 min.

Molecule `CC1(C(=O)Nc2cncc3ccc(S(C)(=O)=O)cc23)CNC(=O)c2ccc(Cl)cc21` (stereo unspecified) showed a pIC50 in series [1] of 5.18. In series [2] (rat), the total exposure AUC(0-inf) is 304 ng·h/mL and 309 ng·h/mL; the area under the curve AUC(0-t) was 292 ng·h/mL and 303 ng·h/mL; the C0 was 660 ng/mL and 636 ng/mL; the MRT inf was 38.1 min and 34.1 min. For the same molecule, in series [2] (rat), the MRT last is 29.1 min and 35 min; the Vd was 1.08 L/kg and 1.19 L/kg; the clearance is 31.8 mL/min/kg and 32.2 mL/min/kg; the half-life was 26.9 min and 30.5 min.

`O=C(Nc1cncc2ccccc12)C1CN(S(=O)(=O)C2CC2)Cc2ccc(Cl)cc21` (stereo unspecified) gave a pIC50 in series [1] of 6.51. Also, in series [2] (mouse), the AUC(0-inf) was 112 ng·h/mL and 120 ng·h/mL; the AUC(0-t) was 109 ng·h/mL and 116 ng·h/mL; the C0 was 314 ng/mL and 396 ng/mL; the MRT inf was 17.5 min and 18 min. Moreover, in series [2] (mouse), the MRT last was 16 min and 15.5 min; the distribution volume (Vd) was 1.3 L/kg and 1.25 L/kg; the clearance is 74.5 mL/min/kg and 69.4 mL/min/kg; the half-life was 10.7 min and 12.7 min.

`CS(=O)(=O)c1ccc2c(NC(=O)C3CN(S(=O)(=O)CC4(C#N)CC4)Cc4ccc(Cl)cc43)cncc2c1` (stereo unspecified): the pIC50 in series [1] was 7.24 and 6.93.

For `CS(=O)(=O)Nc1cccc(C2=NN(C(=O)CCl)C(c3ccccc3)C2)c1` (stereo unspecified), the pIC50 in series [1] is 5.23.

With `CCOc1ccccc1CNc1cc(Cl)cc(CC(=O)Nc2cncc3ccccc23)c1`, in series [1], the pIC50 was 5.68.

Take `O=C(Cc1cc(Cl)cc(N2CCc3ccccc3[C@H]2c2ccccc2)c1)Nc1cncc2ccccc12` (stereo in doubt): the pIC50 in series [1] was 5.56.

Molecule `CC1(C(=O)Nc2cncc3cc(S(C)(=O)=O)ccc23)CN(CC2CC2)S(=O)(=O)c2ccc(Cl)cc21` (stereo unspecified) gave a pIC50 in series [1] of 6.21. This pIC50 is 0.65 log units higher than that of the molecule before.

For the molecule `Cc1ccc2c(c1)c(CCN)cn2-c1cc(Cl)cc(CC(=O)Nc2cncc3ccccc23)c1`, the pIC50 in series [1] was 5.79.

In turn, `Cc1ccncc1NC(=O)Cc1cc(Cl)cc(C2COC2)c1` gave a pIC50 in series [1] of 4.72. This pIC50 is 1.07 log units lower than that of the molecule before.

`O=C(Cc1cc(Cl)cc(Nc2ccc(I)c(F)c2)c1)Nc1cncc2ccccc12` showed a pIC50 in series [1] of 5.69.

With `CS(=O)(=O)N1Cc2ccc(Cl)cc2C(C(=O)Nc2cncc3ccccc23)C1` (stereo unspecified), in series [2] (mouse), the AUC(0-inf) was 125 ng·h/mL and 139 ng·h/mL; the AUC(0-t) was 124 ng·h/mL and 138 ng·h/mL; the C0 was 399 ng/mL and 588 ng/mL; the MRT inf is 21.6 min and 18.2 min. For the same molecule, in series [2] (mouse), the MRT last is 20.8 min and 17.6 min; the Vd was 1.4 L/kg and 1.06 L/kg; the clearance was 64.9 mL/min/kg and 59 mL/min/kg; the half-life was determined as 16.7 min.

Regarding `COc1cc(CNc2cc(Cl)cc(CC(=O)Nc3cncc4ccccc34)c2)ccc1O`, in series [1], the pIC50 was 5.73.

`O=C(NCCc1cccc(F)c1)C(c1cccnc1)N(C(=O)c1cocn1)c1ccc2ncsc2c1` (stereo unspecified) showed a pIC50 in series [1] of 4.22.

`O=C(c1cc(=O)[nH]c2ccccc12)N1CCN(c2cccc(Cl)c2)CC1` gave a negative logarithm of the IC50 (pIC50) in series [1] of 5.67.

In series [1], `Cc1cc(C(F)(F)F)nc2n[nH]c(NC(=O)C3CCOc4ccc(Cl)cc43)c12` (stereo unspecified) showed a pIC50 of 4.59.

Regarding `COCCN(C)S(=O)(=O)N1Cc2ccc(Cl)cc2C2(CCN(c3cncc4ccccc34)C2=O)C1` (stereo unspecified), in series [1], the negative logarithm of the IC50 (pIC50) is 6.00. This pIC50 lies 1.41 log units higher than the previous one.

Molecule `O=C(NCCc1cccc(F)c1)C(c1cccnc1)N(C(=O)c1cocn1)C1CCC2OCCC2C1` (stereo unspecified) gave a pIC50 in series [1] of under 4.00.

Consider `COC1(c2cccc(Cl)c2)CCN(c2cncc3ccccc23)C1=O` (stereo unspecified), for which the pIC50 in series [1] is 6.33.

In series [1], `N#Cc1ccc(CN2CCC(C3CCNC3)CC2)cc1` (stereo unspecified) had a pIC50 of 5.69.

Turning to `COc1cc(Br)ccc1Nc1cc(Cl)cc(CC(=O)Nc2cncc3ccccc23)c1`, the pIC50 in series [1] was 5.86.

In series [1], `CNC(=O)CN1CC2(CCN(c3cncc4cc(Cl)ccc34)C2=O)c2cc(Cl)ccc2C1=O` (stereo unspecified) had a pIC50 of 6.35.

Take `Cc1ccncc1NC(=O)Cc1cc(Cl)cc(-c2ccc(S(C)(=O)=O)cc2Cl)c1`: the pIC50 in series [1] is under 4.00.

Consider `C[C@H](Nc1cc(Cl)cc(CC(=O)Nc2cncc3ccccc23)c1)c1cccc2ccccc12` (stereo in doubt), for which the pIC50 in series [1] was 5.45.

In series [1], `Cc1ccncc1NC(=O)CN(C)S(=O)(=O)c1cccc2cccnc12` had a pIC50 of under 4.00.

In turn, `O=C(NCc1ccccn1)[C@@H]1CN(C(=O)CCl)CCN1S(=O)(=O)c1ccsc1` (stereo in doubt) showed a pIC50 in series [1] of 6.27.

Regarding `COC(=O)c1cc(/C=c2\sc(=C(C#N)C#N)n(-c3cccc(C(F)(F)F)c3)c2=O)oc1C`, the negative-log IC50 (pIC50) in series [1] is under 4.00.

As for `Cn1ccc(CN2Cc3ccc(Cl)cc3C(C(=O)Nc3cncc4ccc(F)cc34)C2)n1` (stereo unspecified), the negative logarithm of the IC50 (pIC50) in series [1] is 5.87.

`CN(C)C(=O)COCC(=O)NC(C(=O)Nc1cncc2ccccc12)c1cccc(Cl)c1` (stereo unspecified) gave a pIC50 in series [1] of 5.27.

In series [1], `COc1cc2nc(Cl)nc(Nc3cc(Cl)cc(CC(=O)Nc4cncc5ccccc45)c3)c2cc1OC` had a pIC50 of 5.63.

In series [1], `O=C(Cc1cc(Cl)cc(Nc2cccnc2Br)c1)Nc1cncc2ccccc12` showed a pIC50 of 5.68. This pIC50 and that of the molecule before are within 0.2 log units of each other.

For `O=C(Nc1ccc(-c2nnc[nH]2)cc1)c1cccc(F)c1F`, the pIC50 in series [1] was under 4.00.

In series [1], `CC(CCC(OC1OC(COC2OC(CO)C(O)C(O)C2O)C(O)C(O)C1O)C(C)(C)O)C1CCC2(C)C3CC=C4C(CCC(O)C4(C)C)C3(C)C(O)CC12C` (stereo unspecified) had a pIC50 of under 4.00.

In turn, `Cc1cc(=O)oc2cc(Nc3cc(Cl)cc(CC(=O)Nc4cncc5ccccc45)c3)ccc12` showed a pIC50 in series [1] of 5.67.

Regarding `COCc1csc(CNC(=O)c2ncc(Cl)cc2Cl)c1`, in series [1], the negative-log IC50 (pIC50) is under 4.00.

With `CCN(Cc1ccc(F)cc1)c1cc(Cl)cc(CC(=O)Nc2cncc3ccccc23)c1`, the pIC50 in series [1] was under 4.00.
